According to patent US20180282279A1, “Pantothenamide Analogues” (Radboud Universitair Medisch Centrum, priority 2014, published 2018):
≈ marks a conversion by molar mass, not a printed value. Read-outs that look alike come from different tables or passages of the source.

Key:
Type in all cases: cell-based
[1] = tested on: Plasmodium falciparum NF54 parasites; experiment: P. falciparum asexual blood stage replication assay (SYBR Green); conditions: NF54, 10% human serum, 72 incubation
Method: Compounds were tested on their ability to inhibit replication of the human malaria parasite Plasmodium falciparum. To this end, Plasmodium falciparum NF54 parasites were cultured in RPMI1640 medium supplemented with 367 μM hypoxanthine, 25 mM HEPES, 25 mM sodiumbicarbonate and 10% human type A serum in an automated large-scale culture system as described before (Transactions of the Royal Society of Tropical Medicine and Hygiene, 1982. 76: p. 812-818). Compounds were diluted in DMSO and subsequently in culture medium to reach a DMSO concentration of 0.2%. 50 μl of diluted compound was transferred to a black 96 well plate. A culture of P. falciparum strain NF54 malaria parasites was diluted to a parasitaemia of 0.5% and a hematocrit of 3%. 50 μl of this diluted culture was added to each well in the 96 well plate._The outermost wells of the plate were filled with sterile water to prevent evaporation. The established antimalarial dihydroartemisinin (DHA) in DMSO acted as a positive control (MIN signal), and 0.1% DMSO acted as a negative control (MAX signal). The plates were incubated for 72 at 37° C., 3% 02, 5% CO2, 93% N2. Changes in parasite replication relative to the controls were monitored using the DNA-marker SYBR Green as described previously (Antimicrob Agents Chemother 48:1803-6). Data were analyzed by logistic regression using the formula: Y=Bottom+(Top-Bottom)/(1+10̂((Log IC50−X)*HillSlope)) and a least squares method to find the best fit.
Using similar methods, IC50 values were determined for a variety of inverted pantothenamides, as listed in table 1 (see section: ‘Detailed description of the invention’)

Streptococcus pyogenes = experiment: Bacterial growth assay and MIC determination, S. pyogenes; conditions: Streptococcus pyogenes; Table 1; most sensitive species S. pyogenes (SP); read-out: MIC (μg/ml) for most sensitive bacterial species
Method: (§1) Strains of Escherichia coli, Staphylococcus aureus and Staphylococcus epidermidis, were grown overnight in 1% Bacto tryptone medium (BD, Sparks, Md.). Streptococcus pyogenes was grown overnight in Bacto Todd Hewitt Broth medium (BD, Sparks, Md.). Cultures were then diluted 1:1,000 in fresh assay medium supplemented with or without 20% fetal bovine serum (FBS; HyClone, Celbio, Logan, Utah) and added to 96-well sterile enzyme-linked immunosorbent assay (ELISA) plates (100 μl per well). The compounds to be tested were diluted in the medium without serum and added to the bacteria (100 μl per well). Plates were incubated at 37° C., and bacterial growth was monitored over time by reading the optical density at 490 nm using a microplate reader (model 450; Bio-Rad Laboratories Inc., Hercules, Calif.). Streptococcus pneumoniae strains were grown to mid-log phase (OD620 of 0.3) and stored in 15% glycerol at […] till further use. Minimal inhibitory concentration (MIC) of antibiotics was determined according to standard procedures. Bacteria were diluted 10-fold in Mueller-Hinton medium (BD, Sparks, Md.) and added to 96-well sterile ELISA plates (150 μl per well). The compounds to be tested were diluted in the medium without serum and added to the bacteria (150 μl per well). Plates were incubated overnight at 37° C. in 5% CO2. The MIC was defined as the lowest concentration of compound at which no growth was visible with the naked eye.

[2] = tested on: Staphylococcus epidermidis; experiment: Bacterial growth assay and MIC determination, S. epidermidis; conditions: Staphylococcus epidermidis; Table 1; most sensitive species S. epidermidis (SE); read-out: MIC (μg/ml) for most sensitive bacterial species
Method: as §1

[3] = tested on: S. aureus (SA), S. epidermidis (SE), S. pyogenes (SP), S. pneumoniae (SPn); experiment: MIC for most sensitive bacterial species (panel); conditions: Table 1, no species named, read-out: MIC (μg/ml) for most sensitive bacterial species
Method: as §1

Row | Compound | IC50 [1] | MIC (Streptococcus pyogenes) | MIC [2] | MIC ([3]; Streptococcus pneumoniae, marked *: not tested for S. pneumoniae) | MIC ([3]; tested for SA, SE, SP and SPn)
1 | CC(C)CCC(=O)NCCNC(=O)[C@H](O)C(C)(C)CO [CXP14.18-005] | 2.78 µM | 8 µg/mL (≈ 27.7 µM) |  |  | 
2 | C=CCCC(=O)NCCNC(=O)[C@H](O)C(C)(C)CO [CXP14.18-007] | 5.15 µM | 16 µg/mL (≈ 58.7 µM) |  |  | 
3 | C=CCCCC(=O)NCCNC(=O)[C@H](O)C(C)(C)CO [CXP14.18-008] | 0.74 µM | 16 µg/mL (≈ 55.9 µM) |  |  | 
4 | C=CCCCCC(=O)NCCNC(=O)[C@H](O)C(C)(C)CO [CXP14.18-010] | 0.71 µM | 16 µg/mL (≈ 53.3 µM) |  |  | 
5 | CCCCCCCCCCC(=O)NCCNC(=O)[C@H](O)C(C)(C)CO [CXP14.18-012] | > 10 µM |  | 8 µg/mL (≈ 22.3 µM) |  | 
6 | C=CC(C)CC(=O)NCCNC(=O)[C@H](O)C(C)(C)CO (stereo partly shown) [CXP14.18-014] | 4.93 µM | 16 µg/mL (≈ 55.9 µM) |  |  | 
7 | C#CCCCC(=O)NCCNC(=O)[C@H](O)C(C)(C)CO [CXP14.18-016] | 0.81 µM | 32 µg/mL (≈ 113 µM) |  |  | 
8 | CCC(=O)NCCNC(=O)[C@H](O)C(C)(C)CO [CXP14.18-019] | 0.17 µM |  |  | > 32 µg/mL | 
9 | CCCC(=O)NCCNC(=O)[C@H](O)C(C)(C)CO [CXP14.18-020] | 2 µM | 32 µg/mL (≈ 123 µM) |  |  | 
10 | CCCCC(=O)NCCNC(=O)[C@H](O)C(C)(C)CO [CXP14.18-028] | 0.85 µM | 2 µg/mL (≈ 7.29 µM) |  |  | 
11 | CSCCCC(=O)NCCNC(=O)[C@H](O)C(C)(C)CO [CXP14.18-034] | 0.62 µM | 8 µg/mL (≈ 26.1 µM) |  |  | 
12 | CCOCCC(=O)NCCNC(=O)[C@H](O)C(C)(C)CO [CXP14.18-035] | > 10 µM | 16 µg/mL (≈ 55.1 µM) |  |  | 
13 | CCCSCC(=O)NCCNC(=O)[C@H](O)C(C)(C)CO [CXP14.18-037] | 1.34 µM | 4 µg/mL (≈ 13.1 µM) |  |  | 
14 | CCSCCC(=O)NCCNC(=O)[C@H](O)C(C)(C)CO [CXP14.18-038] | 0.37 µM | 8 µg/mL (≈ 26.1 µM) |  |  | 
15 | CC(C)(CO)[C@@H](O)C(=O)NCCNC(=O)Cc1ccccc1 [CXP18.6-007] | 3.9 µM | 16 µg/mL (≈ 51.9 µM) |  |  | 
16 | CC(C)(CO)[C@@H](O)C(=O)NCCNC(=O)CCCc1ccccc1 [CXP18.6-008] | 0.57 µM |  | 16 µg/mL (≈ 47.6 µM) |  | 
17 | CC(C)(CO)[C@@H](O)C(=O)NCCCNC(=O)Cc1ccccc1 [CXP18.6-009] | 9.2 µM |  |  |  | > 32 µg/mL
